Source: BindingDB's records for doi:10.1021/jm00089a016 (Abbott Laboratories, 1992)
pKi: −log10 of the molar value.

Test: In vitro intrinsic binding affinity at platelet activating factor receptor using rabbit platelet membranes
Compound `COc1cc(C(C)CCCc2ccc(F)cc2)cc2c1C1=C(CCN(Cc3ccccn3)C1)C(C)(C)O2` (stereo unspecified) has a pKi of 5.38.
For `CC1CSC2=C1c1c(O)cc(C(C)CCCc3ccc(F)cc3)cc1OC2(C)C` (stereo unspecified), the pKi was 4.36.
With `CNC(=O)CN(C)CC1=CC(C)(C)Oc2cc(C(C)CCCc3ccc(F)cc3)cc(O)c21` (stereo unspecified) the pKi was 5.80.
`COc1cc(C(C)CCCc2ccc(F)cc2)cc2c1C1=C(CCN(CCCCCC(=O)O)C1)C(C)(C)O2` (stereo unspecified) gave a pKi of 4.60.
In the case of `COc1cc(C(C)CCCc2ccc(F)cc2)cc2c1C1=C(CCN(CCCCC(=O)O)C1)C(C)(C)O2` (stereo unspecified), the pKi was 5.26.
Compound `COc1cc(C(C)CCCc2ccc(F)cc2)cc2c1C1=C(CCN(CCC(=O)O)C1)C(C)(C)O2` (stereo unspecified) has a pKi of 5.36.
For `C#CCN1CCC2=C(C1)c1c(O)cc(C(C)CCCc3ccc(F)cc3)cc1OC2(C)C` (stereo unspecified), the pKi was 5.49.
Compound `CNC(=O)CN1CCC(C(C)(C)O)=C(c2c(O)cc(C(C)CCCc3ccc(F)cc3)cc2O)C1` (stereo unspecified) has a pKi of 4.63.
Compound `CCCCCC(C)C(C)c1cc(O)c2c(c1)OC(C)(C)C1=C2CN(CC(=O)NC)CC1` (stereo unspecified) has a pKi of 5.43.
`CNC(=O)CN1CCC2=C(C1)c1c(OCC(=O)O)cc(C(C)CCCc3ccc(F)cc3)cc1OC2(C)C` (stereo unspecified) showed a pKi of 6.03.
`CNC(=O)CN1CCC2=C(C1)c1c(OC)cc(C(C)CCCc3ccc(F)cc3)cc1OC2(C)C` (stereo unspecified) gave a pKi of 6.85.
Work on `CC(CCCc1ccc(F)cc1)c1cc(O)c2c(c1)OC(C)(C)C1=C2CN(CC(=O)N(C)C)CC1` (stereo unspecified) yielded a pKi of 4.80.
Compound `CNC(=O)CN1CCC2=C(C1)c1c(O)cc(C(C)CCCc3ccc(F)cc3)cc1OC2(C)C` (stereo unspecified) has a pKi of 6.48.
`CC(CCCc1ccc(F)cc1)c1cc(O)c2c(c1)OC(C)(C)C1=C2CN(C(=O)CO)CC1` (stereo unspecified) showed a pKi of 4.69.
For `CNC(=O)CN1CCC2=C(C1)c1c(O)cc(C(C)C)cc1OC2(C)C`, the pKi was 5.05.
In the case of `CNC(=O)CCCN1CCC2=C(C1)c1c(O)cc(C(C)CCCc3ccc(F)cc3)cc1OC2(C)C` (stereo unspecified), the pKi was 4.68.
